Patent publication US11618916B2, “Probe for measuring activity of Caspase-1 and composition for diagnosis of inflammatory diseases containing same” (KOREA INSTITUTE OF SCIENCE AND TECHNOLOGY, priority 2018, dated 2023)

How the values were obtained:
[1] = system: T1, probe for measuring the activity of caspase-1 prepared in Example 4
T1 sequence: GWEHDGK

THP-1 monocytes = assay: Fluorescence restoration in LPS/ATP-treated cells, fluorescence microscope; format: cell-based; conditions: THP-1 treated with 1.5 μg/mL LPS and 5 mM ATP, probe 3.5 hours later; vs control without LPS/ATP; FIG. 4B
Procedure: THP-1 monocytes were placed on a 96-well plate and treated with 1.5 μg/mL LPS and 5 mM ATP one day later. 3.5 hours later, the probe for measuring the activity of caspase-1 prepared in Example 4 was administered. Then, after culturing for 24 hours, fluorescence restoration by the probe for measuring the activity of caspase-1 in the cells was analyzed with a fluorescence microscope.
Control was treated with neither LPS nor ATP.
LPS and ATP are known to activate caspase-1. LPS is a primary signal occurring in the early stage of inflammation and ATP is a secondary signal. […] That is to say, it was confirmed that the probe for measuring the activity of caspase-1 of the present disclosure can accurately measure caspase-1 activated by inflammation response.

caspase-1 enzyme [2] = target: T2, caspase-1 enzyme (Homo sapiens, UniProt P29466); assay: Fluorescence restoration depending on caspase-1 enzyme concentration; format: biochemical; conditions: FIG. 3B
T2 sequence (P29466 120-297 limits assumed): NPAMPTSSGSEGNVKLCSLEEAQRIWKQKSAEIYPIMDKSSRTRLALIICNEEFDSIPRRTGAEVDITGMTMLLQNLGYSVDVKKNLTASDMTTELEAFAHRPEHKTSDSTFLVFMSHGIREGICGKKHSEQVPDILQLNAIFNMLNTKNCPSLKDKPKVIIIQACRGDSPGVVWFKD
T2 sequence (P29466 317-404 limits assumed): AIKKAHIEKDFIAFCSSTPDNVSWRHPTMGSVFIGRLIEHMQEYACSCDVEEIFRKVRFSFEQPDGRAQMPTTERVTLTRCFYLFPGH
Procedure: In order to investigate the fluorescence of the probe for measuring the activity of caspase-1 prepared in Example 4 depending on the concentration of the caspase-1 enzyme, the change in fluorescence with time was analyzed and evaluated using the caspase-1 enzyme at various concentrations (0, 2.5, 5, 7.5 and 10 units).
First, the caspase enzyme of various concentrations (0, 2.5, 5, 7.5 and 10 units) was dissolved in a reaction buffer (0.5 mM HEPES, pH 7.2, 50 mM calcium chloride, 0.1% CHAPS, 10 mM EDTA, 5% glycerol, 10 mM DTT) and incubated at 37° C. for 1 hour. After transferring 200 μL of the caspase enzyme activated through the procedure to each well of a 96-well plate and then incubating with the probe for measuring the activity of caspase-1 of Example 4 at 37° C., the restoration of fluorescence with time was observed by fluorescence spectroscopy.
The fluorescence image for each reaction solution is shown at the bottom of FIG. 3B.

[3] = system: inflammation-induced animal model; assay: Detection of inflammation in LPS/ATP inflammation-induced animal model, IVIS Lumina imaging; format: in vivo, C57BL/6 mice
Procedure: The caspase-1 enzyme is activated due to various factors. Among them, the most representative method is to activate inflammasome by administering LPS or ATP which induces early inflammation response. In Test Example 5, it was confirmed using the probe for measuring the activity of caspase-1 of Example 4 that the administration of LPS and ATP induced the activation of inflammasome, which is an early inflammation response. In this test example, an experiment was carried out using an inflammation-induced animal model in order to investigate whether the probe for measuring the activity of caspase-1 of Example 4 works well in vivo, too. In order to establish the inflammation-induced animal model, 8-week-old C57BL/6 mice acquired from Nara Bio were accustomed for a week and then reared in animal plastic cages, with 4 mice per cage. The cage was controlled with artificial lighting for 12 hours from 7 am to […], indoor temperature of 18-23° C. and 40-60% humidity. Clean water and feed were given freely. Then, physiological saline (control group), 20 μg of LPS and 50 mM ATP (Ms1 test group) or 20 μg of LPS and 100 mM ATP (Ms2 test group) was injected into the left sole of the experimental animal. After intravenously injecting the probe for measuring the activity of caspase-1 prepared in Example 4 with 3-day intervals, the respective groups were imaged with IVIS Lumina with 30-minute intervals.

[4] = system: colitis animal model (DSS); assay: Imaging of DSS colitis animal model; format: in vivo, C57BL/6 mice; conditions: DSS vs normal
Procedure: In order to establish a colitis animal model, 8-week-old C57BL/6 mice acquired from Nara Bio were accustomed for a week and then reared in animal plastic cages, with 4 mice per cage. The cage was controlled with artificial lighting for 12 hours from 7 am to 7 pm, indoor temperature of 18-23° C. and 40-60% humidity. Clean water and feed were given freely. Colitis was induced by providing the experimental animal with drinking water containing 3% dextran sodium sulfate (DSS). […] Because the body weight of the colitis animal model decreases proportionally to the progress of the disease, the probe for measuring the activity of caspase-1 of Example 4 was administered on day 6, when the body weight was decreased to 80%, for imaging. As a control group (normal), a non-colitis-induced group was prepared by providing normal drinking water to the experimental animal.

caspase-1 enzyme [5] = target: T2, caspase-1 enzyme; assay: Specific activity of probe: fluorescence restoration with caspase enzymes (caspase-1, 3, 8, 11) or caspase-1 inhibitor; format: biochemical; conditions: caspase-1, 3, 8, 11 at 2 units or caspase-1 inhibitor; 37° C.; FIG. 3A
Procedure: In order to investigate whether the probe for measuring the activity of caspase-1 prepared in Example 4 is specifically cleaved by the caspase-1 enzyme and restores fluorescence, the change in fluorescence with time was analyzed and evaluated using various caspase enzymes (caspase-1, 3, 8 and 11) and a caspase-1 inhibitor.
First, a caspase enzyme or a caspase-1 inhibitor was dissolved in a reaction buffer (0.5 mM HEPES, pH 7.2, 50 mM calcium chloride, 0.1% CHAPS, 10 mM EDTA, 5% glycerol, 10 mM DTT) and then incubated at 37° C. for 1 hour. All the enzymes were used at the same concentration of 2 units. After transferring 200 μL of the caspase enzyme activated through the procedure to each well of a 96-well plate and then incubating with the probe for measuring the activity of caspase-1 of Example 4 at 37° C., the restoration of fluorescence with time was observed by fluorescence spectroscopy.
The photographs at the bottom of FIG. 3A show the fluorescence images of the respective reaction solutions. (+)Cas-1 was treated with the caspase-1 enzyme, (+)cas-1 inhibitor was treated with the caspase-1 inhibitor, (+)cas-3 was treated with the caspase-3 enzyme, (+)cas-8 was treated with the caspase-8 enzyme, and (+)cas-11 was treated with the caspase-11 enzyme.

Alzheimer's animal model = assay: Imaging of Alzheimer's animal model; format: in vivo, B6SJL-Tg (APPSwFILon, PSEN1*M146L*L286V)6799Vas/Mmjax) mice
Procedure: In order to establish an Alzheimer's animal model, 3- to 6-month-old B6SJL-Tg (APPSwFILon, PSEN1*M146L*L286V)6799Vas/Mmjax) mice acquired from the […] (Bar Harbor, USA) were accustomed for a week and then reared in animal plastic cages, with 4 mice per cage. The cage was controlled with artificial lighting for 12 hours from 7 am to 7 pm, indoor temperature of 18-23° C. and 40-60% humidity. Clean water and feed were given freely. An Alzheimer's animal model was induced through genetic APP mutation. Amyloid beta, which is the cause of dementia, is accumulated from 3 months later and form aggregates 4 months later. […] A control group (pre) was not subjected to the genetic mutation.

In the case of caspase-11 enzyme, the “restoration of fluorescence with time by photoluminescence (PL) after cleavage of the probe” value (shortened to “restoration of fluorescence … of the probe”) [1] is reported as “restores fluorescence specifically only in the presence of caspase-1 at all times”.
In the case of caspase-8 enzyme, the “restoration of fluorescence … of the probe” value [1] is reported as “restores fluorescence specifically only in the presence of caspase-1 at all times”.
In the case of `CCN(CC)c1ccc2nc3ccc(/N=N/c4ccc(N(C)CCCC(=O)NCCCCC(NC(=O)CNC(=O)[C@H](CC(=O)O)NC(=O)[C@H](Cc5c[nH]cn5)NC(=O)[C@H](CCC(=O)O)NC(=O)[C@H](Cc5c[nH]c6ccccc56)NC(=O)CNC(=O)CCCCCCCN5/C(=C/C=C/C=C/C6=[N+](CC)c7ccc8c(S(=O)(=O)O)cc(S(=O)(=O)O)cc8c7C6(C)C)C(C)(C)c6c5ccc5c(S(=O)(=O)O)cc(S(=O)(=O)O)cc65)C(=O)O)cc4)cc3[n+](-c3ccccc3)c2c1` (stereo partly shown) [Example 4], the “fluorescence restoration in cells” value (THP-1 monocytes) is reported as “the fluorescence of Cy5.5 was restored effectively as compared to the control group”, the “concentration limit of the caspase-1 enzyme that could be measured” value (caspase-1 enzyme [2]) is reported as 7.5 units and the “change in fluorescence intensity with caspase-1 enzyme concentration” value (caspase-1 enzyme [2]; caspase-1 at 0, 2.5, 5, 7.5 and 10 units, 37° C.) is reported as “increase in fluorescence intensity as the concentration of the caspase-1 enzyme increases”. The “in-vivo fluorescence depending on the concentration of inflammation-inducing substances (images)” value ([3]; LPS/ATP into left sole (Ms1: 20 μg LPS + 50 mM ATP; Ms2: 20 μg LPS + 100 mM ATP), probe intravenously, FIG. 5A) was “the fluorescence was restored better”, the “quantified fluorescence from the top of the left foot and the left calf” value ([3]; control, Ms1 and Ms2 test groups, FIG. 5B) was “exhibits stronger fluorescence” and the “fluorescence from the groin, ham and lymph node” value ([3]; control, Ms1 and Ms2 test groups, FIG. 5C) was “The strongest fluorescence was observed in the ham lymph node closest to the sole”. For the same molecule, the “fluorescence from the extracted large intestine” value ([4]; FIG. 6D) was “Strong red fluorescence was observed in the large intestine extracted from the colitis animal model”, the “Cy5.5 fluorescence in isolated colon cells (fluorescence microscope, NLRP3 inflammasome co-staining)” value ([4]; FIG. 6F) was “only in the colon cells isolated from the colitis animal model” and the “whole-body fluorescence images after intravenous injection” value ([4]; day 6, 30-minute intervals, FIG. 6C) was “red fluorescence was observed clearly in the colitis animal model”. The “restoration of fluorescence with time (photoluminescence), specificity among caspase enzymes” value (caspase-1 enzyme [5]) was “restores fluorescence specifically only in the presence of caspase-1 at all times”, the “fluorescence images 90 minutes after intravenous injection” value (Alzheimer's animal model; Alzheimer's animal models of 3-6 months vs control (pre), FIG. 7A) was “the fluorescence could be observed in the Alzheimer's animal model from 3 months” and the “co-localisation of probe fluorescence with caspase-1 antibody staining in brain tissue” value (Alzheimer's animal model; model of 3 months (TG), 3 hours after probe, FIG. 7E) was “corresponds exactly to the region immunologically stained with the caspase-1 antibody”. For the same molecule, the “fluorescence from the brain” value (Alzheimer's animal model; models of 3, 4, 5 and 6 months, FIG. 7B) was “fluorescence was observed in the brain of the Alzheimer's animal model from 4 months”, the “fluorescence in quadrisected brain (fluorescence microscope)” value (Alzheimer's animal model; models of 3-6 months, FIG. 7D) was “the fluorescence was observed clearly in the hippocampal region of the brain” and the “quantified fluorescence intensity from the brain” value (Alzheimer's animal model; vs control group (WT), FIG. 7C) was “significant fluorescence intensity began to be observed starting from the Alzheimer's animal model of 4 months”.
In the case of caspase-1 enzyme, the “restoration of fluorescence … of the probe” value [1] is reported as “restores fluorescence specifically only in the presence of caspase-1 at all times”.
In the case of caspase-3 enzyme, the “restoration of fluorescence … of the probe” value [1] is reported as “restores fluorescence specifically only in the presence of caspase-1 at all times”.
